Key:
[1] = system: USP3, USP10, USP13, USP16, USP18; assay: USP protein levels (western blot)
Protocol: H4 cells were transfected with indicated siRNAs for 72 hrs or treated with rapamycin (0.2 μM) or spautin (10 μM) for 4 hrs, and non-target siRNA (N. T. siRNA) was used as negative control. The cell lysates were harvested and analyzed by western blotting using (Left): antibodies specific for the indicated proteins. Anti-α-tubulin was used as loading controls.

MCF-7 cells = MCF-7 cells under glucose-free condition; assay type: cell-based
Protocol: FIG. 11 depicts results showing that selected cancer cell lines are sensitive to MBCQ and its active derivatives under glucose free condition. BT549 cells were treated with indicated concentrations of C43 for 24 h in normal DMEM (A) or under serum free condition (B). The cell viability was assayed by MTT or harvested for western blotting assay with anti-LC3 (C). MCF-7 cells were treated with DMSO (1‰), C43 (10 μM) in DMEM with (D) or without (E) glucose, for 12 h. The cell viability was assayed by MTT or images (F). […] Bcap-37 cells were treated with indicated concentrations of C43 for 24 h in normal DMEM (H) or under serum free condition (I). The cell viability was assayed by MTT or images (J) And the cell lysates treated with C43 for indicated time were analyzed by western blotting using anti-PARP (L) or anti-LC3 (M) and α-tubulin was used as a loading control. (K) Cell cycle profile of Bcap-37 treated with C43. Bcap-37 cells were treated with DMSO (0.1%) (left figure), C43 (10 μM) (right figure) for 12 h. The cells were then fixed with 70% ethanol, stained with propidium iodide (PI, 40 μg/mL) and treated with RNase enzyme (200 μg/mL) solution for 30 min in dark. Cell cycle profile and possible apoptotic death were statistics analyzed by flow cytometer. […]

MDA-MB-231 cells = assay: MDA-MB-231 cell survival under serum free condition; assay type: cell-based
Protocol: Since autophagy is activated under metabolic stress conditions to support cell survival, compounds were tested to determine if they promote cell death under starvation condition.

LC3 = LC3 western blotting in MEF cells; assay type: cell-based, mouse; conditions: 4 hours, 10 μM, rapamycin 0.2 μM
Protocol: FIG. 5 depicts results related to showing that active derivatives of MBCQ reduce the levels of LC3II in MEF cells. […] The cell lysates were collected for western blotting using anti-LC3 antibody. B, Electron microscopy confirmation of the autophagy inhibitory effects of C43 (spautin) on MEF cells. MEF cells were treated with vehicle control (1‰ DMSO), and other indicated compounds for 4 h. Rapamycin (0.2 μM) and C43 (spautin) (10 μM). Then the cells were fixed with glutaraldehyde and prepared the sample for EM assay. Bar, 1:11,000. Arrows indicate double and multi-membrane autophagosomic vesicles. N: nucleus.
To confirm the inhibitory activity on autophagy, mouse embryo fibroblasts (MEF) cells were treated with C29, C43 or C71 for 4 hours in the presence or absence of rapamycin and the levels of autophagy were determined by LC3 western blotting. […] (FIG. 5A).

[2] = system: major intracellular organelles; assay: Markers of intracellular organelles; assay type: cell-based
Protocol: The effects of MBCQ on early endosomes using immunostaining of EEA1 as a marker, lysosomes using immunostaining of lamp2 as a marker or lysotracker, trans-Golgi using GalT-YFP as a marker was determined. No effect of MBCQ was detected in any of these experiments.

[3] = system: LC3-GFP (H4-LC3-GFP cells); assay: Starvation induced autophagy in H4-LC3-GFP cells; assay type: cell-based; conditions: Hanks buffer 1 h; MBCQ 5 μM, 3-MA 10 mM, wortmannin 0.1 μM
Description: FIG. 2 depicts results relating to MBCQ inhibition of autophagy induced by starvation. Quantitative measurement of LC3-GFP spot number per cell (a), spot size per cell (b) and spot intensity per cell (c) using HCS and expressed as % of control.

mTOR pathway = assay: Western blotting of mTOR pathway phosphorylation; assay type: cell-based
Description: Since MBCQ inhibits autophagy induced by rapamycin and starvation, it was first determined if MBCQ affects the activity of mTOR. […] Thus, it was concluded that MBCQ has no effect for the mTOR pathway or type I PI3 kinase.

SMILES | levels of USP13 and USP10 ([1]; 293T cells and Bcap-37 cells) | levels of USP44 ([1]; 293T cells and Bcap-37 cells) | levels of USP3, USP10, USP13, USP16 and USP18 ([1]; H4 cells, 10 μM, 4 hrs) | autophagy (western blot, LC3) (MCF-7 cells; basal and glucose-free condition) | cell survival (MCF-7 cells; glucose-free condition) | cell survival (MDA-MB-231 cells) | autophagy induced by rapamycin (LC3 western blotting) (LC3) | early endosomes (EEA1), lysosomes (lamp2, lysotracker), trans-Golgi (GalT-YFP) [2] | starvation induced autophagy (LC3-GFP spot number, size, intensity) [3] | phosphorylation of GSK-3α/β, AKT (mTOR pathway) | phosphorylation of mTOR and its targets, p70S6K and S6 (mTOR pathway; control or rapamycin treated cells)
Fc1ccc(CNc2ncnc3ccc(F)cc23)cc1 [C43, 6-fluoro-N-(4-fluorobenzyl)quinazolin-4-amine] | reduce the levels of USP13 and USP10 | little effect | reduced the levels of these five USPs | inhibited autophagy | reduced the survival | reduced the survival | inhibited autophagy induced by rapamycin |  |  |  | 
Clc1ccc2ncnc(NCc3ccc4c(c3)OCO4)c2c1 [MBCQ] |  |  |  |  |  |  |  | No effect | significantly reduced | Nor does MBCQ have any effect | no effect on the phosphorylation of mTOR and its targets
